The subject of assay [1] is HT-29. The assay is described as follows: Antiproliferative activity against human HT-29 cells assessed as cell growth inhibition incubated for 48 hrs by sulforhodamine B assay. The assay is classed as functional, cell-based. To be noted: HT-29, 48 h. In general terms: Sulforhodamine B stains cellular protein and so reports cell mass.
Assay [2] has as its system M21. The assay is described as follows: Antiproliferative activity against human M21 cells assessed as cell growth inhibition incubated for 48 hrs by sulforhodamine B assay. Type of assay: functional, cell-based. To be noted: M21, 48 h.
Assay [3] deals with MCF7. The assay is described as follows: Antiproliferative activity against human MCF7 cells expressing CYP1A1 assessed as cell growth inhibition incubated for 48 hrs by sulforhodamine B assay. Type of assay: functional, cell-based. Particulars: MCF7, 48 h.
Assay [4] is described as follows: Selectivity ratio, ratio of IC50 for antiproliferative activity against human M21 cells to IC50 for antiproliferative activity against human MCF7 cells expressing CYP1A1. The assay is classed as functional.
Assay [5] can be described thus: Selectivity ratio, ratio of IC50 for antiproliferative activity against human HT-29 cells to IC50 for antiproliferative activity against human MCF7 cells expressing CYP1A1. The assay is classed as functional.

Molecules are shown by their SMILES.

As for `CCCCCCCCN1CCN(c2ccc(S(=O)(=O)Oc3ccc(F)c(F)c3)cc2)C1=O`, the half-maximal inhibitory concentration (IC50) in assay [1], in assay [2] and in assay [3] was more than 1250 nM throughout.
Take `CCCCCCN1CCN(c2ccc(S(=O)(=O)Oc3cc(F)cc(F)c3)cc2)C1=O`: the IC50 – broadly, the concentration at which inhibition is half-maximal – in assay [1] was more than 2500 nM; in assay [2], more than 2500 nM; in assay [3], 400 nM. For the same compound, the “Ratio IC50” value in assay [4] and in assay [5] was more than 6.3 in each case.
`CCCCCN1CCN(c2ccc(S(=O)(=O)Oc3cccc(F)c3)cc2)C1=O`: the half-maximal inhibitory concentration (IC50) was more than 12500 nM in assay [1], more than 12500 nM in assay [2] and 1200 nM in assay [3]. For the same compound, the “Ratio IC50” value in assay [4] and in assay [5] was more than 10 in each case.
On to `CCCCCCN1CCN(c2ccc(S(=O)(=O)Oc3ccccc3OC)cc2)C1=O`, for which the IC50 in assay [1], in assay [2] and in assay [3] was more than 2500 nM in each case.
In the case of `CCCCCCCCN1CCN(c2ccc(S(=O)(=O)Oc3ccccc3)cc2)C1=O`, the IC50 in assay [1], in assay [2] and in assay [3] was more than 1250 nM throughout.
As for `CCCCCCN1CCN(c2ccc(S(=O)(=O)Oc3cccc(Cl)c3)cc2)C1=O`, the IC50 in assay [1] is more than 2500 nM; in assay [2] it was more than 2500 nM; in assay [3], 1800 nM. Moreover, the “Ratio IC50” value in assay [4] and in assay [5] was more than 1.4 in each case.
For `CCCCCCCCN1CCN(c2ccc(S(=O)(=O)Oc3cc(Br)cc(Br)c3)cc2)C1=O`, the IC50 in assay [1], in assay [2] and in assay [3] was more than 1250 nM in each case.
On to `CCCCCCCCN1CCN(c2ccc(S(=O)(=O)Oc3cccc(Br)c3)cc2)C1=O`, for which the IC50 in assay [1], in assay [2] and in assay [3] was more than 1250 nM in each case.
`CCCCCN1CCN(c2ccc(S(=O)(=O)Oc3ccc(F)c(F)c3)cc2)C1=O`: the IC50 in assay [1], in assay [2] and in assay [3] was more than 12500 nM in each case.
As for `CCCCCN1CCN(c2ccc(S(=O)(=O)Oc3ccc(OC)c(OC)c3)cc2)C1=O`, the half-inhibitory concentration (IC50) in assay [1] is more than 12500 nM; in assay [2] it was 500 nM; in assay [3] it was 700 nM. Also, the “Ratio IC50” value in assay [4] and in assay [5] was more than 18 in each case.
As for `CCCCCN1CCN(c2ccc(S(=O)(=O)Oc3cc(Br)cc(Br)c3)cc2)C1=O`, the 50% inhibitory concentration (IC50) in assay [1], in assay [2] and in assay [3] was more than 500 nM throughout.
As to `CCCCCCCCN1CCN(c2ccc(S(=O)(=O)Oc3ccc(OC)cc3)cc2)C1=O`, the IC50 in assay [1], in assay [2] and in assay [3] was more than 1250 nM in each case.
On to `CCCCCCN1CCN(c2ccc(S(=O)(=O)Oc3cccc(I)c3)cc2)C1=O`, for which the IC50 in assay [1] was more than 1250 nM; in assay [2] it was more than 1250 nM; in assay [3] it was 1100 nM. For the same compound, the “Ratio IC50” value in assay [4] and in assay [5] was more than 1.1 each time.
Turning to `CCCCCCN1CCN(c2ccc(S(=O)(=O)Oc3ccccc3)cc2)C1=O`, the half-inhibitory concentration (IC50) in assay [1], in assay [2] and in assay [3] was more than 2500 nM in each case.
Consider `CCCCCCCCN1CCN(c2ccc(S(=O)(=O)Oc3cc(OC)c(OC)c(OC)c3)cc2)C1=O`, for which the 50% inhibitory concentration (IC50) in assay [1], in assay [2] and in assay [3] was more than 1250 nM throughout.
Turning to `CCCCCCN1CCN(c2ccc(S(=O)(=O)Oc3cccc(F)c3)cc2)C1=O`, the IC50 in assay [1], in assay [2] and in assay [3] was more than 2500 nM in each case.
For the compound `CCCCCCCCN1CCN(c2ccc(S(=O)(=O)Oc3cccc(F)c3)cc2)C1=O`, the half-maximal inhibitory concentration (IC50) in assay [1], in assay [2] and in assay [3] was more than 1250 nM in each case.
For `CCCCCCCCN1CCN(c2ccc(S(=O)(=O)Oc3cc(OC)cc(OC)c3)cc2)C1=O`, the IC50 in assay [1], in assay [2] and in assay [3] was more than 2500 nM throughout.
With `CCCCCCCCN1CCN(c2ccc(S(=O)(=O)Oc3cccc(OC)c3)cc2)C1=O`, the half-inhibitory concentration (IC50) in assay [1], in assay [2] and in assay [3] was more than 2500 nM in each case.
Consider `CCCCCCCCN1CCN(c2ccc(S(=O)(=O)Oc3cc(F)cc(F)c3)cc2)C1=O`, for which the 50% inhibitory concentration (IC50) in assay [1], in assay [2] and in assay [3] was more than 1250 nM each time.
As to `CCCCCCCCN1CCN(c2ccc(S(=O)(=O)Oc3ccc(OC)c(OC)c3)cc2)C1=O`, the IC50 in assay [1], in assay [2] and in assay [3] was more than 1250 nM throughout.
With `CCCCCCCCN1CCN(c2ccc(S(=O)(=O)Oc3cccc(I)c3)cc2)C1=O`, the IC50 in assay [1], in assay [2] and in assay [3] was more than 1250 nM throughout.
`CCCCCCN1CCN(c2ccc(S(=O)(=O)Oc3cc(OC)cc(OC)c3)cc2)C1=O`: the half-maximal inhibitory concentration (IC50) in assay [1], in assay [2] and in assay [3] was more than 1250 nM throughout.
For the compound `CCCCCCN1CCN(c2ccc(S(=O)(=O)Oc3ccc(F)c(F)c3)cc2)C1=O`, the IC50 in assay [1], in assay [2] and in assay [3] was more than 2500 nM throughout.
For the compound `CCCCCCN1CCN(c2ccc(S(=O)(=O)Oc3ccc(OC)cc3)cc2)C1=O`, the IC50 in assay [1], in assay [2] and in assay [3] was more than 1250 nM in each case.
In the case of `CCCCCN1CCN(c2ccc(S(=O)(=O)Oc3cc(F)cc(F)c3)cc2)C1=O`, the figures for the IC50 in assay [1], in assay [2] and in assay [3] were more than 12500 nM, more than 12500 nM and 1000 nM, respectively. Also, the “Ratio IC50” value in assay [4] and in assay [5] was more than 13 throughout.
As to `CCCCCCCCN1CCN(c2ccc(S(=O)(=O)Oc3cc(Cl)cc(Cl)c3)cc2)C1=O`, the IC50 in assay [1], in assay [2] and in assay [3] was more than 1250 nM in each case.
`CCCCCN1CCN(c2ccc(S(=O)(=O)Oc3ccccc3OC)cc2)C1=O`: the IC50 in assay [1], in assay [2] and in assay [3] was more than 12500 nM throughout.
In the case of `CCCCCN1CCN(c2ccc(S(=O)(=O)Oc3ccc(OC)cc3)cc2)C1=O`, the 50% inhibitory concentration (IC50) in assay [1], in assay [2] and in assay [3] was more than 12500 nM each time.
As to `CCCCCCN1CCN(c2ccc(S(=O)(=O)Oc3cccc(Br)c3)cc2)C1=O`, the 50% inhibitory concentration (IC50) in assay [1], in assay [2] and in assay [3] was more than 1250 nM each time.
In the case of `CCCCCCN1CCN(c2ccc(S(=O)(=O)Oc3ccc(OC)c(OC)c3)cc2)C1=O`, the IC50 in assay [1], in assay [2] and in assay [3] was more than 1250 nM each time.
For `CCCCCCCCN1CCN(c2ccc(S(=O)(=O)Oc3cccc(Cl)c3)cc2)C1=O`, the IC50 in assay [1], in assay [2] and in assay [3] was more than 1250 nM each time.
As to `CCCCCCN1CCN(c2ccc(S(=O)(=O)Oc3cccc(OC)c3)cc2)C1=O`, the half-inhibitory concentration (IC50) in assay [1], in assay [2] and in assay [3] was more than 2500 nM each time.
On to `CCCCCCCCN1CCN(c2ccc(S(=O)(=O)Oc3ccccc3OC)cc2)C1=O`, for which the IC50 in assay [1], in assay [2] and in assay [3] was more than 2500 nM throughout.
In the case of `CCCCCN1CCN(c2ccc(S(=O)(=O)Oc3ccccc3)cc2)C1=O`, the concentration for half-maximal inhibition (IC50) in assay [1], in assay [2] and in assay [3] was more than 25000 nM each time.

The values above are taken from ChEMBL document CHEMBL5316344, “Homologation of the Alkyl Side Chain of Antimitotic Phenyl 4-(2-Oxo-3-alkylimidazolidin-1-yl)benzenesulfonate Prodrugs Selectively Targeting CYP1A1-Expressing Breast Cancers Improves Their Stability in Rodent Liver Microsomes” (J Med Chem, 2023).
